According to PMC4260220 (Scientific Reports, 2014):

Target: T1, PPARγ (Homo sapiens, UniProt P37231)
T1 sequence (P37231 231-505 limits assumed): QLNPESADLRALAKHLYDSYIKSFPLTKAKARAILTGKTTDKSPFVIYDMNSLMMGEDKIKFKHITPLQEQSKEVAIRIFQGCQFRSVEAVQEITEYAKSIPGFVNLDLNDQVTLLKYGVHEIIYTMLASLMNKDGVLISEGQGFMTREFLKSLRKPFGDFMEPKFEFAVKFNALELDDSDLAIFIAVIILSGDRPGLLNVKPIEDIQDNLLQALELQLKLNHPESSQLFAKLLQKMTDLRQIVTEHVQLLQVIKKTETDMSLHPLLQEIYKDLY
Assay: competitive TR-FRET binding assay

CC(C)=CCC[C@](C)(O)[C@H]1CC[C@]2(C)[C@@H]1[C@H](O)C[C@@H]1[C@@]3(C)CC[C@H](O)C(C)(C)[C@@H]3[C@@H](O)C[C@]12C [PPT, 20(S)-5α-Dammar-24-ene-3β,6α,12β,20-tetrol]
Ki: 4.2 µM
